Laboratory results: patent US4877778A, “Method of enhancing lipophile transport using cyclodextrin derivatives” (priority 1987, dated 1989)

Assays:
[1] = in vivo
Description: (§1) The infusion was therefore discontinued and 250 mL of fresh frozen plasma was administered over 3 hours.

[2] = system: patient with severe, chronic hypervitaminosis A; conditions: human, in vivo
Description: as §1

**Q.** Which LDM [1] does the source give for 2-hydroxypropyl-β-cyclodextrin here?
**A.** The LDM was 536 U/L.

**Q.** And the “Serum pH and concentrations of glucose, protein, albumin, calcium, phosphate, and hepatic transaminases” value [1]?
**A.** Its value is “remained normal throughout the infusion”.

**Q.** What about the chloride [1] of the same substance?
**A.** Its chloride is 107 M EQ/L.

**Q.** And the sodium [1]?
**A.** The sodium was 138 M EQ/L.

**Q.** And the symptoms during infusion [2]?
**A.** The symptoms during infusion was “generalized irritability and pain in the legs and shins”.
